In US8361997B2, “Process for preparing a crystalline form of halobetasol propionate” (Taro Pharmaceutical North America, Inc., priority 2005, dated 2013):

What was measured:
[1] = cited from earlier work
[2] = Stability of HPLC sample and standard solutions in diluent; assay type: physicochemical; conditions: approx. 20 mg in 100 mL diluent (45:55 v/v water and acetonitrile); room temperature for 2 days protected from sunlight
Procedure: (§1) Approximately 20 mg of the crystalline halobetasol propionate sample to be assayed, accurately weighed, was transferred into a 100-mL volumetric flask, and the flask was filled to volume with diluent. The solution was sonicated to ensure complete dissolution. The sample solution was stable at room temperature for 2 days protected from sunlight.
as §1, with “of a” for “of the”, “propionate standard,” for “propionate sample to be assayed,”, “The standard” for “The sample”

stability of the solution [2]: stable
SMILES: CCC(=O)O[C@]1(C(=O)CCl)[C@@H](C)C[C@H]2[C@@H]3C[C@H](F)C4=CC(=O)C=C[C@]4(C)[C@@]3(F)[C@@H](O)C[C@@]21C [Halobetasol propionate, (6α,11β,16β)-21-chloro-6,9-difluoro-11-hydroxy-16-methyl-17-(1-oxopropoxy)pregna-1,4-diene-3,20-dione]
solubility in organic solvents ([1]; organic solvents): soluble | solubility in water ([1]; water): insoluble
